From patent US20240262795A1, “PYRAZINE COMPOUNDS AS INHIBITORS OF FLT3” (Biomea Fusion, Inc., priority 2021, published 2024)

biological target: T1, Ba/F3 cell lines stably expressing human FLT3-ITD-D835Y (Homo sapiens, UniProt P36888, D835Y, cells depend on it, form not given); experiment: FLT3 mutant assay, cell viability, Ba/F3-FLT3-ITD-D835Y; format: cell-based, mouse; conditions: IC50 (3 days), CellTiter-Glo; read-out: Ba/F3-FLT3-ITD-D835Y Relative IC50
T1 construct: Ba/F3-FLT3-ITD-D835Y Relative IC50
T1 sequence (P36888 1-993 D835Y): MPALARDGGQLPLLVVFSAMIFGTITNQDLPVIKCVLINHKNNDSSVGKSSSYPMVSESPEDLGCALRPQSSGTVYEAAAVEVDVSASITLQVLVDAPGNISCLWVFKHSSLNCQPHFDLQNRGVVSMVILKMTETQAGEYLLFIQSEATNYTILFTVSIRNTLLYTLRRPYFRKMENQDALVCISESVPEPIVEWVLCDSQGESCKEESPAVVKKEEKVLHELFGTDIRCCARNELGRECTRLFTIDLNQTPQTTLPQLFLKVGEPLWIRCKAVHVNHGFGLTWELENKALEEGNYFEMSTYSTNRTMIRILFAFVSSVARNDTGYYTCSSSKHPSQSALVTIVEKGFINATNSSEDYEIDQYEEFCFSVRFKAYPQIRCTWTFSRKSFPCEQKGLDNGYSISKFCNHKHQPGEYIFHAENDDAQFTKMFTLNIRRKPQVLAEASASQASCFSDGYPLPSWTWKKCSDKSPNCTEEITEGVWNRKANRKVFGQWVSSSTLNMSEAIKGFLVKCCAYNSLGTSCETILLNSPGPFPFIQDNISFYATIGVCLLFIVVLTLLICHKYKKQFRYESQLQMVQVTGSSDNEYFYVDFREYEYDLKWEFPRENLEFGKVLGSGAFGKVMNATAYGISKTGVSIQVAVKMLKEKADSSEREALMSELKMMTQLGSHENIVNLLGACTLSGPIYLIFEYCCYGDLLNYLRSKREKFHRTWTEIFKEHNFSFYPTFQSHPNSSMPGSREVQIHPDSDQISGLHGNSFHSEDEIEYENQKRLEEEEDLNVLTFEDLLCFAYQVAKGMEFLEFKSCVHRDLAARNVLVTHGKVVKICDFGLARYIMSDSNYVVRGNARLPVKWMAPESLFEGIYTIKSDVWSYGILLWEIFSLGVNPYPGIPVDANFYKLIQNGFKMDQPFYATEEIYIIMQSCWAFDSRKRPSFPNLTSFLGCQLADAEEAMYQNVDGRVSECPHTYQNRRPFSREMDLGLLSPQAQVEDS
Description: Activity of compounds on FLT3 activating mutations were assessed using Ba/F3 cell lines (mouse pro-B cell line) stably expressing human FLT3-ITD, FLT3-ITD-D835Y or FLT3-ITD-F691L. […] The supernatant collected were concentrated with PEG8000 and used to infect Ba/F3 cells at 1-5 MOI in serum-free media with polybrene. Infected Ba/F3 cells were selected in presence of puromycin, and surviving cells verified by sequencing and/or protein detection assay. Constitutive expression of the activating kinase transforms the Ba/F3 cells into IL-3-independent growth allowing them to be cultured in the absence of IL-3. […] For use in compound testing, cells in exponential growth phase were harvested, counted, and resuspended at the required cell density. Cell viability assays were performed in 96-well assay plates and 90 μL of cell suspension seeded per well. Serial dilutions of the test compounds and assay controls and were freshly prepared for the assay. Nine-point 3× serial dilutions were prepared in 100% DMSO (400× stock) and subsequently diluted in cell culture media to obtain 10× stocks. Ten microliters of the 10× stock serial dilutions were added to the appropriate wells (triplicate wells per condition) in the assay plate. […] Assay plates were incubated for 3 days in at 37° C. in a humidified incubator with 5% CO2.
Inhibition rate (IR) of the tested compounds was determined by the following formula: IR (%)=(1−(RLU compound−RLU blank)/(RLU control−RLU blank))*100%. The inhibitions of different dose of compound were calculated in Excel file, and the dose responses were analysed using GraphPad Prism to evaluate related parameters, such as Bottom, Top and IC50. For the IC50 analysis by GraphPad Prism, the equation below was used to fit curve: Y=Bottom+(Top−Bottom)/(1+10^((LogIC50−X)*HillSlope))

Row | SMILES | GI50
1 | CCc1nc(C(N)=O)c(Nc2cccc(CCNC(=O)CN(C)C(=O)/C=C/CN3CCC3)c2)nc1N(C)CC [Compound 516A, (E)-3-((3-(2-(2-(4-(azetidin-1-yl)-N-methylbut-2-enamido)acetamido)ethyl)phenyl)amino)-6-ethyl-5-(ethyl(methyl)amino) pyrazine-2-carboxamide] | 10 to 100 nM
2 | CCc1nc(C(N)=O)c(Nc2ccnc(CCNC(=O)[C@H](C)N(C)C(=O)/C=C/CN(C)C)c2)nc1C1CC1 [Compound 310, (S,E)-5-cyclopropyl-3-((2-(2-(2-(4-(dimethylamino)-N-methylbut-2-enamido)propanamido)ethyl)pyridin-4-yl)amino)-6-ethylpyrazine-2-carboxamide] | 10 to 100 nM
3 | CCc1nc(C(N)=O)c(Nc2cccc(CCNC(=O)CN(C)C(=O)/C=C/CN(C)C)c2)nc1C1CC1 [Compound 219, (E)-5-cyclopropyl-3-((3-(2-(2-(4-(dimethylamino)-N-methylbut-2-enamido)acetamido)ethyl)phenyl)amino)-6-ethylpyrazine-2-carboxamide] | 10 to 100 nM
4 | Cc1nc(C(N)=O)c(Nc2cccc(CCNC(=O)[C@H](C)N(C)C(=O)/C=C/CN(C)C)c2)nc1N(C)C(C)C [Compound 232, (S, E)-3-((3-(2-(2-(4-(dimethylamino)-N-methylbut-2-enamido)propanamido)ethyl)phenyl)amino)-5-(isopropyl (methyl)amino)-6-methylpyrazine-2-carboxamide] | 10 to 100 nM
5 | CCc1nc(C(N)=O)c(Nc2cccc([C@@H](C)CNC(=O)CN(C)C(=O)/C=C/CN(C)C)c2)nc1C1CC1 [Compound 504, (R,E)-5-cyclopropyl-3-((3-(1-(2-(4-(dimethylamino)-N-methylbut-2-enamido)acetamido)propan-2-yl)phenyl)amino)-6-ethylpyrazine-2-carboxamide] | 10 to 100 nM
6 | CCc1nc(Nc2cccc([C@@H](C)CNC(=O)CN(C)C(=O)/C=C/CN3CCC3)c2)c(C(N)=O)nc1CC [Compound 508, (R, E)-3-((3-(1-(2-(4-(azetidin-1-yl)-N-methylbut-2-enamido)acetamido)propan-2-yl)phenyl)amino)-5,6-diethylpyrazine-2-carboxamide] | 10 to 100 nM
7 | CCc1nc(C(N)=O)c(Nc2cccc([C@@H](C)CNC(=O)CN(C)C(=O)/C=C/CN3CCC3)c2)nc1N(C)CC [Compound 518, (R,E)-3-((3-(1-(2-(4-(azetidin-1-yl)-N-methylbut-2-enamido)acetamido)propan-2-yl)phenyl)amino)-6-ethyl-5-(ethyl(methyl)amino)pyrazine-2-carboxamide] | 10 to 100 nM
8 | CCc1nc(C(N)=O)c(Nc2ccc(N3CCC(N4CCN(C)CC4)CC3)c(OC)c2)nc1NC1CCOCC1 [Gilteritinib, gilteritinib, reference compound] | 10 to 100 nM
9 | CCc1nc(C(N)=O)c(Nc2cccc([C@@H](C)CNC(=O)CN(C)C(=O)/C=C/CN3CCC3)c2)nc1C1CC1 [Compound 506, (R,E)-3-((3-(1-(2-(4-(azetidin-1-yl)-N-methylbut-2-enamido)acetamido)propan-2-yl)phenyl)amino)-5-cyclopropyl-6-ethylpyrazine-2-carboxamide] | 10 to 100 nM
10 | CCOc1nc(Nc2cccc(CCNC(=O)CN(C)C(=O)/C=C/CN3CCC3)c2)c(C(N)=O)nc1CC [Compound 602, (E)-3-((3-(2-(2-(4-(azetidin-1-yl)-N-methylbut-2-enamido)acetamido)ethyl)phenyl)amino)-5-ethoxy-6-ethylpyrazine-2-carboxamide] | 10 to 100 nM
11 | CCc1nc(C(N)=O)c(Nc2ccnc(CCNC(=O)[C@H](C)N(C)C(=O)/C=C/CN(C)C)c2)nc1N(C)C(C)C [Compound 605, (S, E)-3-((2-(2-(2-(4-(dimethylamino)-N-methylbut-2-enamido)propanamido)ethyl)pyridin-4-yl)amino)-6-ethyl-5-(isopropyl (methyl)amino) pyrazine-2-carboxamide] | 10 to 100 nM
12 | CCc1nc(C(N)=O)c(Nc2cccc(CCNC(=O)CN(C)C(=O)/C=C/CN3CCC3)c2)nc1OC(C)C [Compound 603, (E)-3-((3-(2-(2-(4-(azetidin-1-yl)-N-methylbut-2-enamido)acetamido)ethyl)phenyl)amino)-6-ethyl-5-isopropoxypyrazine-2-carboxamide] | 10 to 100 nM
13 | CCc1nc(C(N)=O)c(Nc2cccc(CCNC(=O)[C@H](C)N(C)C(=O)/C=C/CN(C)C)c2)nc1N(C)C(C)C [Compound 204, (S,E)-3-((3-(2-(2-(4-(dimethylamino)-N-methylbut-2-enamido)propanamido)ethyl)phenyl)amino)-6-ethyl-5-(isopropyl(methyl)amino)pyrazine-2-carboxamide] | 1 to 10 nM
14 | CCc1nc(C(N)=O)c(Nc2cccc(CCNC(=O)[C@H](C)N(C)C(=O)/C=C/CN(C)C)c2)nc1NC(C)C [Compound 205, (S,E)-3-((3-(2-(2-(4-(dimethylamino)-N-methylbut-2-enamido)propanamido)ethyl)phenyl)amino)-6-ethyl-5-(isopropylamino)pyrazine-2-carboxamide] | 1 to 10 nM
15 | CCCc1nc(Nc2cccc([C@@H](C)CNC(=O)CN(C)C(=O)/C=C/CN3CCC3)c2)c(C(N)=O)nc1CC [Compound 507, (R,E)-3-((3-(1-(2-(4-(azetidin-1-yl)-N-methylbut-2-enamido)acetamido)propan-2-yl)phenyl)amino)-6-ethyl-5-propylpyrazine-2-carboxamide] | 10 to 100 nM
16 | CCc1nc(C(N)=O)c(Nc2cccc(CCNC(=O)CN(C)C(=O)/C=C/CN(C)C)c2)nc1N(C)CC [Compound 252, (E)-3-((3-(2-(2-(4-(dimethylamino)-N-methylbut-2-enamido)acetamido)ethyl)phenyl)amino)-6-ethyl-5-(ethyl (methyl)amino) pyrazine-2-carboxamide] | 1 to 10 nM
17 | CCc1nc(C(N)=O)c(Nc2cc(F)cc(CCNC(=O)CN(C)C(=O)/C=C/CN3CCC3)c2)nc1C1CC1 [Compound 516, (E)-3-((3-(2-(2-(4-(azetidin-1-yl)-N-methylbut-2-enamido)acetamido)ethyl)-5-fluorophenyl)amino)-5-cyclopropyl-6-ethylpyrazine-2-carboxamide] | 10 to 100 nM
18 | Cc1nc(C(N)=O)c(Nc2cccc(CCNC(=O)CN(C)C(=O)/C=C/CN(C)C)c2)nc1N(C)C(C)C [Compound 250, (E)-3-((3-(2-(2-(4-(dimethylamino)-N-methylbut-2-enamido)acetamido)ethyl)phenyl)amino)-5-(isopropyl(methyl)amino)-6-methylpyrazine-2-carboxamide] | 10 to 100 nM
19 | CCc1nc(C(N)=O)c(Nc2cccc(CCNC(=O)[C@H](C)N(C)C(=O)/C=C/CNC)c2)nc1N(C)C(C)C [Compound 307, (S,E)-6-ethyl-5-(isopropyl(methyl)amino)-3-((3-(2-(2-(N-methyl-4-(methylamino)but-2-enamido)propanamido)ethyl)phenyl)amino)pyrazine-2-carboxamide] | 10 to 100 nM
